Literature values, collected in patent US20080051459A1, “LONG TERM 24-HOUR INTESTINAL ADMINISTRATION OF LEVODOPA/CARBIDOPA” (Solvay Pharmaceuticals GmbH, priority 2006, published 2008).

System: patient
Settings: one patient; from 86 to 100 mg/hour in about 5 weeks

## N[C@@H](Cc1ccc(O)c(O)c1)C(=O)O [levodopa]
  Increase in administration rate (dose requirement): 16%
